Assay results taken from patent publication US9670242B2, “Tetracyclic anthraquinone derivatives” (Tianjin Hemay Bio-Tech Co., Ltd, priority 2012, dated 2017).

Experiments:
Type in all cases: cell-based, human
MDA-MB-453 cells = assay: MDA-MB-453 cell growth inhibition test (SRB assay); details: growth inhibition at 2000 nM, 69.5 h
Method: MDA-MB-453 Cell Growth Inhibition Test (SRB Assay)
Cell strains: MDA-MB-453 (human breast cancer cell strains); SRB: 0.4% (w/v) working solution was formulated with 1% glacial acetic acid, reserved at 4° C.; antitumor compounds; DMSO.
(§1) II. Reagents and Consumable Materials
Culture medium: 90% L15+10% FBS; pancreatin (0.25% (w/v) solution was formulated with PBS, 0.53 mM of EDTA was added in the formulation); PBS; 96-well culture plate.
(§2) 1. A plate (10 cm) of cells in logarithmic growth phase that were normally cultured was collected;
(§3) 2. The culture solution was sucked out. The plate was washed with 5 mL of PBS once or twice;
(§4) 3. 1.5 mL of 0.25% pancreatin was added to the plate to infiltrate the cells;
(§5) 4. The pancreatin was sucked out. The culture plate was placed in an incubator. Digestion was carried out for about 3 min at 37° C.;
(§6) 5. 4 mL of complete culture solution was added to the culture plate to stop the digestion. The cells were carefully scoured with micropipette (1 ml) to give a uniform single cell suspension. The suspension was implanted into a 96-well cell culture plate by 7000 cells/100 μL per well. The culture plate was incubated overnight under 5% CO2 at 37° C. In day 2, 100 μL of culture solution comprising a compound was added in each well.
The plate was further incubated for 69.5 h under 5% CO2 at 37° C.;
(§7) 6. The culture solution was sucked out. 100 uL of TCA fixed cells which were diluted to 10% were added to each well. The plate was kept in a refrigerator for 1 h at 4° C.
(§8) 7. TCA stationary liquid was sucked out. Each well was washed with 150 μL of ddH2O five times;
(§9) 8. After the stationary liquid was cleansed, the plate was dried in the air at the room temperature;
(§10) 9. 60 μL of SRB staining solution was added in each well. The well was stained for 15 min at the room temperature;
(§11) 10. The SRB staining solution was sucked out. Each well was washed with 150 μL of 1% glacial acetic acid five times;
(§12) 11. After the SRB staining solution was cleansed, the plate was dried in the air at the room temperature;
(§13) 12. 100 μL of 10 mM Tris was added in each well. The plate was vibrated to dissolve out SRB;
(§14) 13. OD values were determined at 570 nM.
(§15) IV. Results and Treatments
(§16) 1. Calculation of Relative Inhibition Ratio The inhibition ratio of a compound on cell growth=(PC−n)/(PC−NC)×100%
(§17) PC: OD values of cells after normal growth in control wells without a compound;
(§18) n: OD values of cells after growth in test wells with a compound;
(§19) NC: Background OD values of blank wells without a compound and cells.

NCI-H446 cells = assay: NCI-H446 cell growth inhibition test (MTT assay); details: growth inhibition at 222 nM, 70 h
Method: NCI-H446 Cell Growth Inhibition Test (MTT Assay)
Cell strains: NCI-H446 (human small cell lung cancer cell strains); MTT; antitumor compounds; DMSO.
as §1
(§20) Culture medium: 90% RPMI-1640+10% FBS; Pancreatin (0.25% (w/v) solution was formulated with PBS, 0.53 mM of EDTA was added in the formulation); PBS; 96-well culture plate.
as §2, §3
(§21) 3. PBS was sucked out. 1.5 mL of 0.25% pancreatin was added to infiltrate the cells;
4. The culture plate was placed in an incubator. Digestion was carried out for about 3 min at 37° C.;
(§22) 5. 3 mL of complete culture solution was added to the culture plate to stop the digestion. The cells were carefully scoured with micropipette (1 ml) to give a uniform cell suspension. The suspension was implanted into a 96-well cell culture disc by 4000 cells/100 μL per well. The culture plate was incubated overnight under 5% CO2 at 37° C. In day 2, 100 μL of culture solution comprising a compound was added in each well. The plate was further incubated for 70 h under 5% CO2 at 37° C.;
(§23) 6. The culture solution was sucked out;
(§24) 7. 100 μL of serum-free culture solution containing 0.5 mg/mL MTT was added in each well. The plate was incubated for 3 h;
(§25) 8. The culture solution was carefully sucked out;
(§26) 9. 100 μL of DMSO was added into each well and vibrated to dissolve;
(§27) 10. OD values were determined at 490 nM.
as §15, §16, §17, §18, §19

SK-OV-3 cells = assay: SK-OV-3 cell growth inhibition test (MTT assay); details: growth inhibition at 667 nM, 69 h
Method: SK-OV-3 Cell Growth Inhibition Test (MTT Assay)
Cell strains: SK-OV-3 (human ovarian cancer cell strains); MTT; antitumor compounds; DMSO.
as §1
Culture medium: 90% McCoy's 5A+10% FBS; Pancreatin (0.25% (w/v) solution was formulated with PBS, 0.53 mM of EDTA was added in the formulation); PBS; 96-well culture plate.
as §2, §3, §21
4. The pancreatin was sucked out. The culture plate was placed in an incubator. Digestion was carried out for about 5 min at 37° C.;
as §22, with “5. 4.5” for “5. 3”, “for 69” for “for 70”
as §23, §24, §25
9. 100 μL of DMSO was added in each well and vibrated to dissolve;
as §27, §15, §16, §17, §18, §19

BxPc-3 cells = assay: BxPc-3 cell growth inhibition test (MTT assay); details: growth inhibition at 2000 nM, 70 h
Method: BxPc-3 Cell Growth Inhibition Test (MTT Assay)
Cell strains: BxPC-3 (human pancreatic cancer cell strains); MTT; antitumor compounds; DMSO.
as §1, §20, §2, §3, §21
4. The culture plate was placed in an incubator. Digestion was carried out for about 8 min at 37° C.;
as §22, with “5. 4.5” for “5. 3”, “by 5000” for “by 4000”
as §23, §24, §25, §26, §27, §15, §16, §17, §18, §19

22Rv1 cells = assay: 22Rv1 cell growth inhibition test (SRB assay); details: growth inhibition at 222 nM, 73 h
Method: 22Rv1 Cell Growth Inhibition Test (SRB Assay)
Cell strains: 22Rv1 (human prostate cancer cell strains); SRB: 0.4% (w/v) working solution was formulated with 1% glacial acetic acid, reserved at 4° C.; antitumor compounds; DMSO.
as §1, §20, §2, §3, §4, §5
as §6, with “each well. The plate was further incubated for 73 h under 5% CO2 at 37° C.;” for “each well.”
as §7, §8, §9, §10, §11, §12, §13, §14, §15, §16, §17, §18, §19

Row | SMILES | Inhibition Ratio (%) (MDA-MB-453 cells) | Inhibition Ratio (%) (NCI-H446 cells) | Inhibition Ratio (%) (SK-OV-3 cells) | Inhibition Ratio (%) (BxPc-3 cells) | Inhibition Ratio (%) (22Rv1 cells)
1 | CCN1CCN(C(=O)CCC(=O)OCC(=O)C2(O)Cc3c(O)c4c(c(O)c3C(OC3CC(n5cccc5)C(O)C(C)O3)C2)C(=O)c2c(OC)cccc2C4=O)CC1 (stereo not shown) [Example 40] | 73% | 49% | 47.9% | 76.5% | 50.5%
2 | COc1cccc2c1C(=O)c1c(O)c3c(c(O)c1C2=O)CC(O)(C(=O)COC(=O)CCC(=O)NCCOCCOCCOCCO)CC3O[C@H]1C[C@H](n2cccc2)[C@H](O)[C@H](C)O1 (stereo partly drawn) [Example 1, 10-((3′-(pyrrol-1-yl)-2′,3′,6′-trideoxy-alphal-l-lyxo-hexylpyranyl)oxy)-7,8,9,10-tetrahydro-6,8,11-trihydroxy-13-oxo-14-(4-(2-(2-(2-(2-hydroxyethoxy)ethoxy)ethoxy)ethylamino)-4-oxo-butyrato)-1-methoxy-5,12-naphthalenedione] | 77.7% | 43.2% | 57.3% | 82.5% | 52.2%
3 | COc1cccc2c1C(=O)c1c(O)c3c(c(O)c1C2=O)CC(O)(C(=O)COC(=O)CCC(=O)Nc1cccnc1)CC3OC1CC(n2cccc2)C(O)C(C)O1 (stereo not shown) [Example 24] | 79.8% | 61.8% | 61.4% | 84.7% | 63.6%
4 | COc1cccc2c1C(=O)c1c(O)c3c(c(O)c1C2=O)CC(O)(C(=O)COC(=O)CCC(=O)N1CCN(CCO)CC1)CC3OC1CC(n2cccc2)C(O)C(C)O1 (stereo not shown) [Example 8] | 75.3% | 59.5% | 60% | 82.6% | 56.8%
5 | COc1cccc2c1C(=O)c1c(O)c3c(c(O)c1C2=O)CC(O)(C(=O)COC(=O)CCC(=O)NCc1ccncc1)CC3OC1CC(n2cccc2)C(O)C(C)O1 (stereo not shown) [Example 26] | 79.9% | 66.9% | 67.6% | 82.7% | 60.8%
6 | COc1cccc2c1C(=O)c1c(O)c3c(c(O)c1C2=O)CC(O)(C(=O)COC(=O)CCC(=O)NN1CCOCC1)CC3OC1CC(n2cccc2)C(O)C(C)O1 (stereo not shown) [Example 10] | 78.5% | 61.1% | 71.5% | 85% | 62.7%
7 | COc1cccc2c1C(=O)c1c(O)c3c(c(O)c1C2=O)CC(O)(C(=O)COC(=O)CCC(=O)NCCCN1CCCC1)CC3OC1CC(n2cccc2)C(O)C(C)O1 (stereo not shown) [Example 18] |  |  | 47.4% | 70.7% | 
8 | COc1cccc2c1C(=O)c1c(O)c3c(c(O)c1C2=O)CC(O)(C(=O)COC(=O)CCC(=O)NCc1ccccn1)CC3OC1CC(n2cccc2)C(O)C(C)O1 (stereo not shown) [Example 30] | 79.9% | 61% | 59.9% | 85.2% | 62.3%
9 | COc1cccc2c1C(=O)c1c(O)c3c(c(O)c1C2=O)CC(O)(C(=O)COC(=O)CCC(=O)NS(C)(=O)=O)CC3OC1CC(n2cccc2)C(O)C(C)O1 (stereo not shown) [Example 94] | 75.8% | 48.4% | 71.4% | 84.9% | 60.7%
10 | COc1cccc2c1C(=O)c1c(O)c3c(c(O)c1C2=O)CC(O)(C(=O)COC(=O)CCC(=O)NCCO)CC3OC1CC(n2cccc2)C(O)C(C)O1 (stereo not shown) [Example 60] | 76.3% | 52.5% | 58.9% | 83.4% | 52.9%
11 | COc1cccc2c1C(=O)c1c(O)c3c(c(O)c1C2=O)CC(O)(C(=O)COC(=O)CCC(=O)Nc1ccncc1)CC3OC1CC(n2cccc2)C(O)C(C)O1 (stereo not shown) [Example 22] | 71.1% | 62.1% | 60.3% | 82% | 56.3%
12 | COc1cccc2c1C(=O)c1c(O)c3c(c(O)c1C2=O)CC(O)(C(=O)COC(=O)CCCC(=O)Nc1ccc(CN2CCOCC2)cc1)CC3OC1CC(n2cccc2)C(O)C(C)O1 (stereo not shown) [Example 3] | 73.9% | 60.8% | 62.5% | 81.2% | 61.9%
13 | COc1cccc2c1C(=O)c1c(O)c3c(c(O)c1C2=O)CC(O)(C(=O)COC(=O)CCC(=O)Nc1ccc(N2CCOCC2)nc1)CC3OC1CC(n2cccc2)C(O)C(C)O1 (stereo not shown) [Example 20] | 82.4% | 68% | 62.6% | 84.1% | 60.9%
14 | COc1cccc2c1C(=O)c1c(O)c3c(c(O)c1C2=O)CC(O)(C(=O)COC(=O)CCC(=O)NN1CCN(C)CC1)CC3OC1CC(n2cccc2)C(O)C(C)O1 (stereo not shown) [Example 14] | 74.4% |  | 53.6% | 81.8% | 52.1%
15 | COc1cccc2c1C(=O)c1c(O)c3c(c(O)c1C2=O)CC(O)(C(=O)COC(=O)CCC(=O)NS(=O)(=O)c1ccccc1)CC3OC1CC(n2cccc2)C(O)C(C)O1 (stereo not shown) [Example 95] | 68.2% |  | 66.3% | 80.6% | 51.3%
